According to ChEMBL document CHEMBL6121048 (J Med Chem, 2025):

Columns and labels:
[1] = target: T1, Ionotropic glutamate receptor NMDA 1/2D (Rattus norvegicus) (UniProt P35439+Q62645); test: Partial agonist activity at recombinant rat GluN1/GluN2D NMDA receptor expressed in xenopus laevis oocytes by measuring maximum response by two-electrode voltage-clamp method relative to glycine; assay type: cell-based
[2] = target: T2, Glutamate NMDA receptor; Grin1/Grin2a (Rattus norvegicus, UniProt P35439+Q00959); test: Partial agonist activity at recombinant rat GluN1/GluN2A NMDA receptor expressed in xenopus laevis oocytes in presence of L-glutamate by two-electrode voltage-clamp method; assay type: cell-based
[3] = target: T3, Ionotropic glutamate receptor NMDA 1/2D (Rattus norvegicus, UniProt P35439+Q62645); test: Partial agonist activity at recombinant rat GluN1/GluN2D NMDA receptor expressed in xenopus laevis oocytes in presence of L-glutamate by two-electrode voltage-clamp method; assay type: cell-based
[4] = target: T4, Glutamate NMDA receptor; Grin1/Grin2a (Rattus norvegicus) (UniProt P35439+Q00959); test: Partial agonist activity at recombinant rat GluN1/GluN2A NMDA receptor expressed in xenopus laevis oocytes by measuring maximum response by two-electrode voltage-clamp method relative to glycine; assay type: cell-based; conditions: filed as partial agonist
[5] = target: T5, Glutamate NMDA receptor; Grin1/Grin2c (Rattus norvegicus, UniProt P35439+Q00961); test: Agonist activity at recombinant rat GluN1/GluN2C NMDA receptor expressed in xenopus laevis oocytes in presence of L-glutamate by two-electrode voltage-clamp method; assay type: cell-based
[6] = target: T6, Glutamate NMDA receptor; Grin1/Grin2c (Rattus norvegicus) (UniProt P35439+Q00961); test: Agonist activity at recombinant rat GluN1/GluN2C NMDA receptor expressed in xenopus laevis oocytes by measuring maximum response by two-electrode voltage-clamp method relative to glycine; assay type: cell-based; conditions: filed as agonist
[7] = target: T7, Glutamate NMDA receptor; Grin1/Grin2b (Rattus norvegicus) (UniProt P35439+Q00960); test: Agonist activity at recombinant rat GluN1/GluN2B NMDA receptor expressed in xenopus laevis oocytes at 3 uM by two-electrode voltage-clamp method relative to control; assay type: cell-based
[8] = target: T7, Glutamate NMDA receptor; Grin1/Grin2b (Rattus norvegicus); test: Agonist activity at recombinant rat GluN1/GluN2B NMDA receptor expressed in xenopus laevis oocytes at 30 uM by two-electrode voltage-clamp method relative to control; assay type: cell-based
[9] = target: Ionotropic glutamate receptor NMDA 1/2C (Homo sapiens) (UniProt Q05586+Q14957); test: Agonist activity at GluN1/GluN2C (unknown origin) expressed in xenopus laevis oocytes by measuring maximum response by two-electrode voltage-clamp method relative to glycine; assay type: cell-based
[10] = target: T6, Glutamate NMDA receptor; Grin1/Grin2c (Rattus norvegicus); test: Inhibition of recombinant rat GluN1/GluN2C NMDA receptor expressed in xenopus laevis oocytes in presence of glycine and L-glutamate by measuring maximum response by two-electrode voltage-clamp method relative to control; assay type: cell-based
[11] = target: T4, Glutamate NMDA receptor; Grin1/Grin2a (Rattus norvegicus); test: Inhibition of recombinant rat GluN1/GluN2A NMDA receptor expressed in xenopus laevis oocytes in presence of glycine and L-glutamate by measuring maximum response by two-electrode voltage-clamp method relative to control; assay type: cell-based
[12] = target: T7, Glutamate NMDA receptor; Grin1/Grin2b (Rattus norvegicus); test: Inhibition of recombinant rat GluN1/GluN2B NMDA receptor expressed in xenopus laevis oocytes in presence of glycine and L-glutamate by measuring maximum response by two-electrode voltage-clamp method relative to control; assay type: cell-based
[13] = target: Glutamate NMDA receptor; Grin1/Grin2b (Rattus norvegicus, UniProt P35439+Q00960); test: Inhibition of recombinant rat GluN1/GluN2B NMDA receptor expressed in xenopus laevis oocytes in presence of glycine and L-glutamate by two-electrode voltage-clamp method; assay type: cell-based
[14] = target: T2, Glutamate NMDA receptor; Grin1/Grin2a; test: Inhibition of recombinant rat GluN1/GluN2A NMDA receptor expressed in xenopus laevis oocytes in presence of glycine and L-glutamate by two-electrode voltage-clamp method; assay type: cell-based
[15] = target: T5, Glutamate NMDA receptor; Grin1/Grin2c; test: Inhibition of recombinant rat GluN1/GluN2C NMDA receptor expressed in xenopus laevis oocytes in presence of glycine and L-glutamate by two-electrode voltage-clamp method; assay type: cell-based
[16] = target: T1, Ionotropic glutamate receptor NMDA 1/2D (Rattus norvegicus); test: Inhibition of recombinant rat GluN1/GluN2D NMDA receptor expressed in xenopus laevis oocytes at 30 uM in presence of glycine and L-glutamate by measuring maximum response by two-electrode voltage-clamp method relative to control; assay type: cell-based
[17] = target: T3, Ionotropic glutamate receptor NMDA 1/2D; test: Inhibition of recombinant rat GluN1/GluN2D NMDA receptor expressed in xenopus laevis oocytes in presence of glycine and L-glutamate by two-electrode voltage-clamp method; assay type: cell-based
[18] = target: T7, Glutamate NMDA receptor; Grin1/Grin2b (Rattus norvegicus); test: Agonist activity at recombinant rat GluN1/GluN2B NMDA receptor expressed in xenopus laevis oocytes by measuring maximum response by two-electrode voltage-clamp method relative to glycine; assay type: cell-based; conditions: filed as agonist
[19] = Apparent permeability across basolateral to apical side in dog MDR1-deficient MDCK cells expressing human MDR1 at 3 uM by LC-MS/MS analysis; assay type: ADME, cell-based, Canis lupus familiaris
[20] = Efflux ratio of apparent permeability across basolateral to apical over apical to basolateral side in dog MDR1-deficient MDCK cells expressing human MDR1 at 3 uM by LC-MS/MS analysis; assay type: ADME, cell-based, Canis lupus familiaris
[21] = Apparent permeability across apical to basolateral side in dog MDR1-deficient MDCK cells expressing human MDR1 at 3 uM by LC-MS/MS analysis; assay type: ADME, cell-based, Canis lupus familiaris

Compound	Rmax [1] [%]	EC50 [2] [nM]	EC50 [3] [nM]	Rmax [4] [%]	EC50 [5] [nM]	Rmax [6] [%]	Rmax ([1]; filed as partial agonist) [%]	Activity [8] [%]	other results
N[C@H](CO)C(=O)O	–	–	–	102	–	116	93	–	–
N[C@H](CNC(=O)c1ccc(-c2ccccc2C(F)(F)F)s1)C(=O)O	24	150	200	62	88	158	–	< 5	–
N[C@H](CNC(=O)c1cc2c(Cl)ccc(Cl)c2[nH]1)C(=O)O	–	–	–	–	–	–	–	–	Rmax [9]: 38%
CCc1ccccc1-c1ccc(C(=O)NC[C@@H](N)C(=O)O)o1	–	–	–	–	–	–	–	–	Rmax [10]: 65%; Rmax [11]: 77%; Rmax [12]: 2%; IC50 [13]: 150 nM; IC50 [14]: 540 nM; IC50 [17]: 1300 nM; IC50 [15]: 1100 nM; Rmax [16]: 7%
NCC(=O)O	–	–	–	100	–	100	100	–	Rmax [18]: 100%
COC(=O)c1ccccc1-c1c2ccc(=N)cc-2oc2cc(N)ccc12.Cl [RHODAMINE123]	–	–	–	–	–	–	–	–	Papp [19]: 5.7 ×10⁻⁶ cm/s; Ratio [20]: 7.5; Papp [21]: 0.77 ×10⁻⁶ cm/s

Second part, led by results:

Rmax [1] [%]	EC50 [2] [nM]	EC50 [3] [nM]	Rmax [4] [%]	EC50 [5] [nM]	Rmax [6] [%]	Rmax ([1]; filed as partial agonist) [%]	Activity [8] [%]	Compound	other results
34	102	303	59	133	116	–	–	N[C@H](CNC(=O)c1ccc(-c2cccc3ccccc23)s1)C(=O)O	Activity [7]: < 5%
–	3730	5580	61	1880	390	42	< 5	N[C@H](CNC(=O)c1ccc(-c2cccc(F)c2)s1)C(=O)O	–
–	2280	3270	69	640	326	43	< 5	N[C@H](CNC(=O)c1ccc(-c2ccccc2)s1)C(=O)O	Rmax [10]: 395%; Rmax [11]: 137%; Rmax [12]: 3%; IC50 [13]: 2100 nM; IC50 [14]: 1900 nM; IC50 [15]: 3900 nM; Rmax [16]: 20%
24	1280	1290	90	660	293	–	< 5	COc1ccccc1-c1ccc(C(=O)NC[C@@H](N)C(=O)O)s1	–
